Results from patent US20230053540A1, “TREATMENT OF LIVER INJURY” (Massachusetts Institute of Technology, priority 2019, published 2023).

Test system: hepatocytes
Assay: Seq-Well scRNA-Seq of hepatocytes after APAP overdose (signature scores, DEG vs untreated)
Format: in vivo, mouse
Conditions: A6 vs UT

CC(=O)Nc1ccc(O)cc1 [APAP, acetaminophen]
Plbd2 pct.1: 0.344 | Plcxd2 A6logFC: −0.2752 | Plcxd2 avg_logFC: −0.2752 | Plcxd2 pct.1: 0.162 | Plec avg_logFC: 0.4675 | Plec pct.1: 0.422 | Plek avg_logFC: 0.3089 | Plek pct.1: 0.11 | Plin2 avg_logFC: 1.461 | Plin5 avg_logFC: 0.2963 | Plin5 pct.1: 0.456 | Plscr1 avg_logFC: 0.4445 | Pmpcb avg_logFC: −0.2636 | Pmpcb pct.1: 0.356 | Pnkd A6logFC: −0.2928 | Pon1 avg_logFC: −0.6858 | Ppan avg_logFC: 0.2724 | Ppan pct.1: 0.255 | Ppara avg_logFC: −0.2871 | Ppara pct.1: 0.234 | Ppib avg_logFC: −0.5897 | Ppip5k2 A6logFC: 0.3209 | Ppip5k2 avg_logFC: 0.3209 | Ppip5k2 pct.1: 0.344 | Ppl avg_logFC: 0.8798 | Ppm1g A6logFC: 0.2522 | Ppm1g avg_logFC: 0.2522 | Ppm1g pct.1: 0.358 | Ppm1k avg_logFC: −0.5584 | Ppp1r3b avg_logFC: −0.4027 | Ppp1r3b pct.1: 0.098 | Ppp2r5a avg_logFC: −0.2605 | Ppp2r5a pct.1: 0.43 | Prdx1 avg_logFC: −0.5292 | Prdx4 avg_logFC: −0.4176 | Prdx4 pct.1: 0.372 | Proc A6logFC: −0.2707 | Prpf19 A6logFC: 0.2588 | Prpf19 avg_logFC: 0.2588 | Prpf19 pct.1: 0.432 | Prrc2c avg_logFC: 0.4393 | Prrc2c pct.1: 0.415 | Psap A6logFC: 0.2578 | Psap avg_logFC: 0.2578 | Psap pct.1: 0.556 | Psat1 avg_logFC: 0.3012 | Psen2 avg_logFC: −0.9474 | Psma1 A6logFC: −0.2567 | Psma1 avg_logFC: −0.2567 | Psma1 pct.1: 0.353 | Psma6 A6logFC: −0.3035 | Psma6 avg_logFC: −0.3035 | Psma6 pct.1: 0.501 | Psme1 avg_logFC: −0.394 | Psme1 pct.1: 0.26 | Ptpmt1 A6logFC: −0.256 | Ptpmt1 avg_logFC: −0.256 | Ptpmt1 pct.1: 0.372 | Ptpn1 avg_logFC: 0.4163 | Ptpn1 pct.1: 0.353 | Ptpn11 A6logFC: 0.2778 | Ptpn11 avg_logFC: 0.2778 | Ptpn11 pct.1: 0.37 | Ptprc avg_logFC: 0.4165 | Pvrl2 A6logFC: −0.2613 | Qdpr avg_logFC: −0.5236 | Qdpr pct.1: 0.606 | Rab6a A6logFC: 0.3234 | Rabac1 A6logFC: −0.266 | Rabac1 avg_logFC: −0.266 | Rabac1 pct.1: 0.346 | Rad54l2 avg_logFC: 0.3887 | Rad54l2 pct.1: 0.325 | Ranbp2 avg_logFC: 0.5985 | Rangap1 A6logFC: 0.2962 | Rangap1 avg_logFC: 0.2962 | Rangap1 pct.1: 0.387 | Rap1b A6logFC: 0.3408 | Rap1b avg_logFC: 0.3408 | Rap1b pct.1: 0.406 | Rarres2 avg_logFC: −0.5522 | Rassf3 A6logFC: 0.2912 | Rassf3 avg_logFC: 0.2912 | Rassf3 pct.1: 0.422 | Rbm25 A6logFC: 0.4215 | Rbm39 A6logFC: 0.2657 | Rbm39 avg_logFC: 0.2657 | Rbm39 pct.1: 0.506 | Rcan1 avg_logFC: 0.7073 | Rdh7 avg_logFC: −0.4186 | Reep3 A6logFC: 0.409 | Reep3 avg_logFC: 0.409 | Reep3 pct.1: 0.535 | Rell1 avg_logFC: 0.5912 | Retnlg avg_logFC: 0.3751 | Retsat avg_logFC: 0.4911 | Rgs2 avg_logFC: 0.3957 | Rgs2 pct.1: 0.138 | Riok3 A6logFC: 0.2916 | Riok3 avg_logFC: 0.2916 | Riok3 pct.1: 0.43 | Rmnd5a A6logFC: 0.3189 | Rmnd5a avg_logFC: 0.3189 | Rmnd5a pct.1: 0.47 | Rnase4 avg_logFC: −1.049 | Rnaseh2c A6logFC: −0.3257 | Rnd3 avg_logFC: 0.3655 | Rnd3 pct.1: 0.284 | Rnf144a avg_logFC: 0.313 | Rnf144a pct.1: 0.177 | Rnf169 A6logFC: 0.334 | Rnf169 avg_logFC: 0.334 | Rnf169 pct.1: 0.315 | Rock1 A6logFC: 0.2608 | Rock1 avg_logFC: 0.2608 | Rock1 pct.1: 0.413 | Rock2 avg_logFC: 0.5941 | Romo1 A6logFC: −0.3359 | Rora avg_logFC: 0.6444 | Rpl13a avg_logFC: −0.3815 | Rpl13a pct.1: 0.704 | Rpl13 avg_logFC: −0.2988 | Rpl13 pct.1: 0.294 | Rpl14 A6logFC: −0.2776 | Rpl14 avg_logFC: −0.2776 | Rpl14 pct.1: 0.372 | Rpl34 A6logFC: −0.2976 | Rpl36al avg_logFC: −0.4755 | Rpl36al pct.1: 0.284 | Rplp1 avg_logFC: −0.5047 | Rplp1 pct.1: 0.449 | Rps15 avg_logFC: −0.4552 | Rps15 pct.1: 0.301 | Rps18 avg_logFC: −0.4885 | Rps18 pct.1: 0.337 | Rps24 A6logFC: −0.2625 | Rps24 avg_logFC: −0.2625 | Rps24 pct.1: 0.453 | Rps27l avg_logFC: −0.8659 | Rraga A6logFC: 0.2626 | Rraga avg_logFC: 0.2626 | Rraga pct.1: 0.337 | Rsl1d1 A6logFC: 0.3461 | S100a8 avg_logFC: 1.128 | S100a9 avg_logFC: 1.343 | Saa4 avg_logFC: −0.571 | Sat1 avg_logFC: 0.6887 | Sc5d avg_logFC: −0.5009 | Sc5d pct.1: 0.58 | Scaf11 A6logFC: 0.3598 | Sco2 avg_logFC: −0.2605 | Sco2 pct.1: 0.353 | Scp2 avg_logFC: −0.5191 | Sdad1 avg_logFC: 0.3124 | Sdad1 pct.1: 0.289 | Sdc3 pct.1: 0.103 | Sdc4 avg_logFC: 0.6196 | Sdr9c7 A6logFC: −0.26 | Sec61b A6logFC: −0.2903 | Sec1412 avg_logFC: −0.7897 | Selenbp1 avg_logFC: −0.4937 | Selenbp1 pct.1: 0.401 | Selenbp2 avg_logFC: −1.009 | Selo A6logFC: −0.2574 | Selo avg_logFC: −0.2574 | Selo pct.1: 0.217 | Sema4g A6logFC: −0.2505 | Sema4g avg_logFC: −0.2505 | Sema4g pct.1: 0.27 | Serbp1 A6logFC: 0.3227 | Serbp1 avg_logFC: 0.3227 | Serbp1 pct.1: 0.659 | Serpina1a avg_logFC: −0.3785 | Serpina1e avg_logFC: −0.2684 | Serpina1e pct.1: 0.99 | Serpina3m avg_logFC: 0.9674 | Serpina3n avg_logFC: 0.8483 | Serpina12 avg_logFC: −0.4534 | Serpina12 pct.1: 0.232 | Serpina1d avg_logFC: −0.289 | Serpina1d pct.1: 0.926 | Sf3b1 A6logFC: 0.2888 | Sf3b1 avg_logFC: 0.2888 | Sf3b1 pct.1: 0.508 | Sgk1 A6logFC: 0.2843 | Shmt1 avg_logFC: −0.3932 | Shmt1 pct.1: 0.339 | Sigmar1 A6logFC: −0.3055 | Slc4a4 avg_logFC: 0.4203 | Slc4a4 pct.1: 0.513 | Slc10a2 avg_logFC: 0.299 | Slc10a2 pct.1: 0.255 | Slc16a2 A6logFC: −0.252 | Slc16a2 avg_logFC: −0.252 | Slc16a2 pct.1: 0.255 | Slc16a6 avg_logFC: 0.9114 | Slc16a10 A6logFC: −0.2548 | Slc16a10 avg_logFC: −0.2548 | Slc16a10 pct.1: 0.196 | Slc20a1 avg_logFC: 0.3572 | Slc20a1 pct.1: 0.284 | Slc22a1 avg_logFC: −0.7979
